Key:
rats = assay: Rat sleep parameters by EEG/EMG telemetry (WAKE, SWS, REM); format: in vivo
Experimental: In the above experiment rats implanted with a two channel telemetry transmitter to record EEG and EMG simultaneously were dosed with either Merck 1 (nanosuspension 3 mg/kg; 5 ml/kg; p.o.) or vehicle (1.4% W/V hydroxypropylmethylcellulose 0.2% W/V sodium docusate; p.o.) at light on-set in a cross-over design. EEG and EMG recordings were collected for at least 12 hours. Data was converted with LoadDSI.s2s and BatchEEGpower2.s2s scripts (CED) and every 12 s epoch was automatically classified as either WAKE, SWS or REM (PS) sleep with Modulus analysis of sleep v7.xlt. Statistical analysis was done with Student's t-test for paired data. REM latency was defined as the first>1 min REM bout.
Similar data is shown for D-amino acid oxidase inhibitor 4H-furo[3,2-b]pyrrole-5-carboxylic acid (Merck 2) in FIG. 3 and D-serine in FIG. 4 at 100 mg/kg. In this experiment rats implanted with a two channel telemetry transmitter to record EEG and EMG simultaneously were dosed with either drug (30, 100, 300 mg/kg d-serine or 25 mg/kg Merck 2) or vehicle (water or 0.5% MC) intraperitoneally at light on-set in a cross-over design. EEG and EMG recordings were collected for at least 12 hours. Data was converted with LoadDSI.s2s and BatchEEGpower2.s2 s scripts (CED) and every 12 s epoch was automatically classified as either WAKE, SWS or REM (PS) sleep with Modulus analysis of sleep v5 REM incl entries.XLT. Preliminary statistical analysis was done with Student's t-test for paired data. Significance level p<0.05.
(§1) Rats implanted with a two channel telemetry transmitter to record EEG and EMG simultaneously were dosed acutely with either Merck 3 (5 mg/kg; i.p.) or vehicle (distilled water; i.p.) at light onset in a cross-over design. EEB and EMG recordings were collected for at least 12 hours. Data was converted with LoadDSI.s2s and BatchEEGpower2.s2s scripts (CED) and every 12 s epoch was automatically classified as either WAKE, SWS or REM (PS) sleep and Modulus analysis of sleep v7 REM incl entries and tot.xlt. Preliminary statistical analysis was done with Student's t-test for paired data. Significance level p<0.05.
as §1, with “3 (25” for “3 (5”, “design. EEG” for “design. EEB”, “sleep with” for “sleep and”, “sleep v6” for “sleep v7”

[1] = 30 mg/kg, cited from earlier work
[2] = 25 mg/kg i.p., first four hours

For `O=C(NCC1(CC2CC2)CCC(S(=O)(=O)CC2CC2)CC1)c1ccc(Cl)cc1Cl` (centres unmarked) [Merck 1, 2,4-dichloro-N-(4-cyclopropylmethane-sulfonyl-1-cyclopropylmethylcyclohexylmethyl)benzamide], the REM latency (rats; 3 mg/kg p.o.) was “significant increase”, the “decrease in REM sleep (mean±SEM)” value (rats; 3 mg/kg p.o., significant) was 54±7% and the “decrease in the number of entries into REM” value (rats; 3 mg/kg p.o., significant) was 45±9%. For the same compound, the “decrease in the number of entries into SWS” value (rats; 3 mg/kg p.o., significant) was 26±8% and the “increase in time spent in WAKE” value (rats; 3 mg/kg p.o., trend, p=0.06) was 93±43%.

With `O=C(O)c1cc2sccc2[nH]1` [Merck 3, 4H-thieno[3,2-b]pyrrole-5-carboxylic acid] the “latency to REM sleep” value (rats; 5 mg/kg i.p.) was “significantly increased”, the “bout duration of SWS” value (rats; 5 mg/kg i.p., 7 to 12 h time period) was “significantly reduced” and the time spent awake (rats; 5 mg/kg i.p., first four hours after dosing) was “significantly increased”. For the same compound, the “latency to REM” value (rats; 25 mg/kg i.p.) was “unaltered”, the “latency to SWS” value (rats; 25 mg/kg i.p.) was “unaltered” and the “wakefulness compared to the control” value (rats; 25 mg/kg i.p., first 4 h) was “significantly more awake”. For the same compound, the “time spent in REM” value (rats; [2]) was “decrease” and the “time spent in SWS” value (rats; [2]) was “decrease”.

For `O=C(N[C@@H](c1ccccc1)[C@@H]1CCCCN1)c1cccc(C(F)(F)F)c1Cl` [SSR504734], the “sleep parameters 24 h after drug challenge” value ([1]; 24 h after drug challenge) is given as “returned to control levels”, the duration of wakefulness ([1]; effect only for the first two hours) is given as “increased” and the “latency time to onset of the first episode of PS” value [1] is given as “increased latency time”. For the same compound, the “paradoxical sleep (PS)” value [1] was “long-lasting reduction”.

From patent publication US20110269782A1, “USE OF NMDA ACTIVITY ENHANCERS TO TREAT HYPERSOMNIA, REDUCED WAKEFULNESS OR REDUCED VIGILANCE” (priority 2008, published 2011)
